# Measured values from US5395947A, “Platinum(II) complex and processes for preparing the same” (Sunkyong Industries, Ltd., priority 1991, dated 1995).
# Assays:
# Test for nephrotoxicity = type: in vivo, male ICR mice; details: 75.0 mg/kg i.p. once
# Method: 4. Test for nephrotoxicity
# The compounds of the present invention were dissolved or suspended in 0.5% CMC solution(in water) and were administered intraperitoneally one time to 8-week-old male ICR mice weighing 30±3 g. Each treatment and control groups consisted of six mice.
# The administration amount of the test compound was 1.5 times the optimum dose obtained in Table 2, or more. On days 1, 4 and 8 after administration, their blood was collected under ether anesthesia for measurement of blood urea nitrogen concentration (BUN value) and creatinine concentration.
# A pair of kidneys were taken and, after immediate weighing, were stored in a 10% neutral buffered formalin solution. The body weight ratio shown in Table 5 is a ratio of the body weight measured on days 1, 4 and 8 from the administration of the compound to the body weight measured on the administration day.
# murine leukemia L1210 = assay: Antitumor activity test on murine leukemia L1210 in vivo; design: species or system male BDF1 mice; details: days 1, 5, 9
# Procedure, shortened: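 Male BDF1 mice (6 weeks, 21±3 g; n=7) received 1×10^6 leukemia cells into the peritoneum on day 0, then test compound suspended or dissolved in 0.5% CMC i.p. on days 1, 5, 9. Activity expressed as T/C %, mean survival treated versus 0.5% CMC-injected controls.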
# [1] = tested on: murine leukemia L1210 cells; assay: Growth inhibition test on cultured murine leukemia L1210 cells; type: cell-based; details: 48 hours, 37° C., Trypan blue viability
# Procedure, shortened: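 Read-out is Trypan blue (0.17%) viability versus compound-free controls. Cells, 1×10^5, were cultured 48 h at 37° C under 5% CO2 in RPMI 1640/10% FCS containing various compound concentrations.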
# ICR mice = assay: Acute toxicity test; type: in vivo; design: Lethality: unit not given here; details: for Lethality: 10080 min
# Procedure, shortened: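 Single i.p. administration to ICR mice (7 weeks old, both sexes, n=6/group); appearance and mortality logged over 7 days, dead animals autopsied for gross pathology.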
# [2] = Test for water solubility; type: physicochemical; details: water
# From the text: 3. Test for water solubility
# A standard plot of UV absorbance(220 nm) vs. concentration was made; and employed to determine water-solubility.
# The mixture was then passed through a 0.45 micron disposable membrane filter before dilution and UV measurement.
smiles,measurement,setting,value
"CCC1(CC)OC2C[NH2+][Pt-2]3([NH2+]CC2O1)[O]C(=O)CC(=O)[O]3 [Example 37, cis-malonato[(4R,5R)-4,5-bis(aminomethyl)-2,2-diethyl-1,3-dioxolane]platinum(II)]","BUN, 1st day",Test for nephrotoxicity,27.5 mg/100 ml
same,"BUN, 4th day",Test for nephrotoxicity,26.4 mg/100 ml
same,"BUN, 8th day",Test for nephrotoxicity,28.4 mg/100 ml
same,T/C (%),murine leukemia L1210; 12.5 mg/kg i.p.,130%
same,T/C (%),murine leukemia L1210; 25 mg/kg i.p.,180%
same,T/C (%),murine leukemia L1210; 50 mg/kg i.p.,231%
same,IC50 (concentration required for 50% inhibition of growth),[1],0.42 µg/mL
"CCC1(CC)OC2C[NH2+][Pt-2]3([NH2+]CC2O1)[O]CC(=O)[O]3 [Example 8, (glycolato-O,O')[(4R,5R)-4,5-bis(aminomethyl)-2,2-diethyl-1,3-dioxolane]platinum(II)]",Number of dead mice for 7 days,"ICR mice; female, 41.3 mg/kg i.p.",0/6
same,"Number of dead mice, 1st day","ICR mice; female, 41.3 mg/kg i.p.",0/6
same,Lethality,"ICR mice; female, 41.3 mg/kg i.p.",0.0
same,Number of dead mice for 7 days,"ICR mice; female, 54.9 mg/kg i.p.",3/6
same,"Number of dead mice, 1st day","ICR mice; female, 54.9 mg/kg i.p.",0/6
same,"Number of dead mice, 3rd day","ICR mice; female, 54.9 mg/kg i.p.",1/6
same,"Number of dead mice, 4th day","ICR mice; female, 54.9 mg/kg i.p.",2/5
same,Lethality,"ICR mice; female, 54.9 mg/kg i.p.",50.0
same,Number of dead mice for 7 days,"ICR mice; female, 71.4 mg/kg i.p.",5/6
same,"Number of dead mice, 1st day","ICR mice; female, 71.4 mg/kg i.p.",0/6
same,"Number of dead mice, 4th day","ICR mice; female, 71.4 mg/kg i.p.",2/6
same,"Number of dead mice, 5th day","ICR mice; female, 71.4 mg/kg i.p.",3/4
same,Lethality,"ICR mice; female, 71.4 mg/kg i.p.",83.7
same,Number of dead mice for 7 days,"ICR mice; female, 91.8 mg/kg i.p.",6/6
same,"Number of dead mice, 1st day","ICR mice; female, 91.8 mg/kg i.p.",0/6
same,"Number of dead mice, 2nd day","ICR mice; female, 91.8 mg/kg i.p.",1/6
same,"Number of dead mice, 3rd day","ICR mice; female, 91.8 mg/kg i.p.",3/5
same,"Number of dead mice, 4th day","ICR mice; female, 91.8 mg/kg i.p.",2/2
same,Lethality,"ICR mice; female, 91.8 mg/kg i.p.",100.0
same,Number of dead mice for 7 days,"ICR mice; male, 41.3 mg/kg i.p.",0/6
same,"Number of dead mice, 1st day","ICR mice; male, 41.3 mg/kg i.p.",0/6
same,Lethality,"ICR mice; male, 41.3 mg/kg i.p.",0.0
same,Number of dead mice for 7 days,"ICR mice; male, 54.9 mg/kg i.p.",4/6
same,"Number of dead mice, 1st day","ICR mice; male, 54.9 mg/kg i.p.",0/6
same,"Number of dead mice, 3rd day","ICR mice; male, 54.9 mg/kg i.p.",2/6
same,"Number of dead mice, 4th day","ICR mice; male, 54.9 mg/kg i.p.",2/4
same,Lethality,"ICR mice; male, 54.9 mg/kg i.p.",66.7
same,Number of dead mice for 7 days,"ICR mice; male, 71.4 mg/kg i.p.",5/6
same,"Number of dead mice, 1st day","ICR mice; male, 71.4 mg/kg i.p.",0/6
same,"Number of dead mice, 3rd day","ICR mice; male, 71.4 mg/kg i.p.",1/6
same,"Number of dead mice, 4th day","ICR mice; male, 71.4 mg/kg i.p.",4/5
same,Lethality,"ICR mice; male, 71.4 mg/kg i.p.",83.3
same,Number of dead mice for 7 days,"ICR mice; male, 91.8 mg/kg i.p.",6/6
same,"Number of dead mice, 1st day","ICR mice; male, 91.8 mg/kg i.p.",0/6
same,"Number of dead mice, 2nd day","ICR mice; male, 91.8 mg/kg i.p.",2/6
same,"Number of dead mice, 3rd day","ICR mice; male, 91.8 mg/kg i.p.",4/4
same,Lethality,"ICR mice; male, 91.8 mg/kg i.p.",100.0
same,T/C (%),murine leukemia L1210; 3.1 mg/kg i.p.,154%
same,T/C (%),murine leukemia L1210; 6.2 mg/kg i.p.,198%
same,T/C (%),murine leukemia L1210; 12.5 mg/kg i.p.,245%
same,T/C (%),murine leukemia L1210; 25 mg/kg i.p.,toxic
same,T/C (%),murine leukemia L1210; 50 mg/kg i.p.,toxic
same,IC50 (concentration required for 50% inhibition of growth),[1],0.06 µg/mL
same,Solubility in water,[2],> 30 mg/mL
"CCC1(C)OC2C[NH2+][Pt-2]3([NH2+]CC2O1)[O]CC(=O)[O]3 [Example 9, (glycolato-O,O')[(4R,5R)-4,5-bis(aminomethyl)-2-ethyl-2-methyl-1,3-dioxolane]platinum(II)]",Number of dead mice for 7 days,"ICR mice; female, 41.3 mg/kg i.p.",2/6
same,"Number of dead mice, 1st day","ICR mice; female, 41.3 mg/kg i.p.",0/6
same,"Number of dead mice, 4th day","ICR mice; female, 41.3 mg/kg i.p.",2/6
same,Lethality,"ICR mice; female, 41.3 mg/kg i.p.",0.0
same,Number of dead mice for 7 days,"ICR mice; female, 54.9 mg/kg i.p.",4/6
same,"Number of dead mice, 1st day","ICR mice; female, 54.9 mg/kg i.p.",0/6
same,"Number of dead mice, 3rd day","ICR mice; female, 54.9 mg/kg i.p.",1/6
same,"Number of dead mice, 4th day","ICR mice; female, 54.9 mg/kg i.p.",3/5
same,Lethality,"ICR mice; female, 54.9 mg/kg i.p.",50.0
same,Number of dead mice for 7 days,"ICR mice; female, 71.4 mg/kg i.p.",5/6
same,"Number of dead mice, 1st day","ICR mice; female, 71.4 mg/kg i.p.",0/6
same,"Number of dead mice, 3rd day","ICR mice; female, 71.4 mg/kg i.p.",1/6
same,"Number of dead mice, 4th day","ICR mice; female, 71.4 mg/kg i.p.",3/5
same,"Number of dead mice, 5th day","ICR mice; female, 71.4 mg/kg i.p.",1/2
same,Lethality,"ICR mice; female, 71.4 mg/kg i.p.",83.7
same,Number of dead mice for 7 days,"ICR mice; female, 91.8 mg/kg i.p.",6/6
same,"Number of dead mice, 1st day","ICR mice; female, 91.8 mg/kg i.p.",0/6
same,"Number of dead mice, 3rd day","ICR mice; female, 91.8 mg/kg i.p.",2/6
same,"Number of dead mice, 4th day","ICR mice; female, 91.8 mg/kg i.p.",4/4
same,Lethality,"ICR mice; female, 91.8 mg/kg i.p.",100.0
same,Number of dead mice for 7 days,"ICR mice; male, 41.3 mg/kg i.p.",0/6
same,"Number of dead mice, 1st day","ICR mice; male, 41.3 mg/kg i.p.",0/6
same,"Number of dead mice, 4th day","ICR mice; male, 41.3 mg/kg i.p.",2/6
same,"Number of dead mice, 5th day","ICR mice; male, 41.3 mg/kg i.p.",1/4
same,Lethality,"ICR mice; male, 41.3 mg/kg i.p.",0.0
same,Number of dead mice for 7 days,"ICR mice; male, 54.9 mg/kg i.p.",4/6
same,"Number of dead mice, 1st day","ICR mice; male, 54.9 mg/kg i.p.",0/6
same,"Number of dead mice, 4th day","ICR mice; male, 54.9 mg/kg i.p.",2/6
same,"Number of dead mice, 5th day","ICR mice; male, 54.9 mg/kg i.p.",2/4
same,Lethality,"ICR mice; male, 54.9 mg/kg i.p.",66.7
same,Number of dead mice for 7 days,"ICR mice; male, 71.4 mg/kg i.p.",5/6
same,"Number of dead mice, 1st day","ICR mice; male, 71.4 mg/kg i.p.",0/6
same,"Number of dead mice, 4th day","ICR mice; male, 71.4 mg/kg i.p.",1/6
same,"Number of dead mice, 5th day","ICR mice; male, 71.4 mg/kg i.p.",2/5
same,"Number of dead mice, 6th day","ICR mice; male, 71.4 mg/kg i.p.",2/3
same,Lethality,"ICR mice; male, 71.4 mg/kg i.p.",83.3
same,Number of dead mice for 7 days,"ICR mice; male, 91.8 mg/kg i.p.",6/6
same,"Number of dead mice, 1st day","ICR mice; male, 91.8 mg/kg i.p.",0/6
same,"Number of dead mice, 2nd day","ICR mice; male, 91.8 mg/kg i.p.",1/6
same,"Number of dead mice, 3rd day","ICR mice; male, 91.8 mg/kg i.p.",4/5
same,"Number of dead mice, 4th day","ICR mice; male, 91.8 mg/kg i.p.",1/1
same,Lethality,"ICR mice; male, 91.8 mg/kg i.p.",100.0
same,T/C (%),murine leukemia L1210; 3.1 mg/kg i.p.,148%
same,T/C (%),murine leukemia L1210; 6.2 mg/kg i.p.,187%
same,T/C (%),murine leukemia L1210; 12.5 mg/kg i.p.,231%
same,T/C (%),murine leukemia L1210; 25 mg/kg i.p.,toxic
same,T/C (%),murine leukemia L1210; 50 mg/kg i.p.,toxic
same,IC50 (concentration required for 50% inhibition of growth),[1],0.08 µg/mL
same,Solubility in water,[2],11.6 mg/mL
